Laboratory results from patent US20250127180A1, “PARTICLES COMPRISING DOUBLE STRANDED RNA AND USE OF SAME IN AGRICULTURE” (priority 2022, published 2025).

Test system: B. cinerea
Assay: In-vitro fungal growth, O.D at 600 nm
Assay type: cell-based, Botrytis cinerea
Experimental: To test the effect of commonly used fungicide on B. cinerea growth, ‘Procloraz’ (Sportak, Bayer Cropscience LLC, Monheim am Rhein, Germany) or ‘fludioxonil’ (scholar, Hod-Hasharon, Israel) fungicide were diluted in 1% SMB to final concentrations of 1-1000 ppb or 0.01-1,000 ppb, respectively.
The plates were incubated at room temperature and O.D measurement at 600 nm was taken every hour for 48-72 hours using Synergy LX plate reader (BioTek, Winooski, Vermont, United States). The absorbance of three wells of repeats was averaged together and was background-corrected by subtracting the average absorbance of media alone at time zero (Galsurker et al., 2020; Langvad, 1999). Growth inhibition percentage was calculated (O.D in control well−O.D in treatment well)/O.D in control well×100) (Meletiadis et al., 2003). Coefficient treatment interaction (CTI) was calculated as follows: CTI=AB/(A×B). AB is the ratio of the treatment combination to control; A, or B is the ratio of the single treatment to control. Coefficient treatment interaction is considered as synergistic when CTI<1 (Chen et al., 2014).

## N#Cc1c[nH]cc1-c1cccc2c1OC(F)(F)O2 [Fludioxonil]
0.01-1,000 ppb, data not shown
  B. cinerea growth: reduced B. cinerea growth in a non-linear manner

## CCCN(CCOc1c(Cl)cc(Cl)cc1Cl)C(=O)n1ccnc1 [Prochloraz, prochloraz]
1-1,000 ppb in growth media
  fungal growth (O.D): dose-dependent reduction of fungal growth

## CC(C)[C@@H](C)/C=C/[C@@H](C)[C@H]1CC[C@H]2C3=CC=C4C[C@@H](O)CC[C@]4(C)[C@H]3CC[C@]12C [ergosterol]
Ergosterol added to control
  fungal growth: did not alter fungal growth
